Measured values published in patent US20100143507A1, “CARBOXYLIC ACID INHIBITORS OF HISTONE DEACETYLASE, GABA TRANSAMINASE AND SODIUM CHANNEL” (AUSPEX PHARMACEUTICALS, INC., priority 2008, published 2010).

Experiment: In vitro liver microsomal stability assay
Assay type: in vitro ADME
Settings: 1 mg per mL liver microsome protein, NADPH-generating system, 1 μM test compound, 37° C., 0-60 minutes, LC/MS/MS
Procedure: Liver microsomal stability assays were conducted with 1 mg per mL liver microsome protein with an NADPH-generating system (2.2 mM NADPH, 25.6 mM glucose 6-phosphate, 6 units per mL glucose 6-phosphate dehydrogenase and 3.3 mM magnesium chloride) in 2% sodium bicarbonate. Test compounds were prepared as solutions in 20% acetonitrile-water and added to the assay mixture (final assay concentration 1 μM) and incubated at 37° C. Final concentration of acetonitrile in the assay should be <1%. Aliquots (50 μL) were taken out at times 0, 15, 30, 45, and 60 minutes, and diluted with ice cold acetonitrile (200 μL) to stop the reactions. Samples were centrifuged at 12,000 RPM for 10 minutes to precipitate proteins. Supernatants were transferred to microcentrifuge tubes and stored for LC/MS/MS analysis of the degradation half-life of the test compounds. […] In certain embodiments, the increase in degradation half-life is at least 5%; at least 10%; or at least 15%.

degradation half-life as compared to the non-isotopically enriched drug: increased degradation half-life
SMILES: [2H]C([2H])([2H])C([2H])([2H])C([2H])([2H])C([2H])(C(=O)O)C([2H])([2H])C([2H])([2H])C([2H])([2H])[2H] [valproic acid-d15]
